Laboratory results as given in patent US20230013824A1, “COMPOSITIONS FOR THE TREATMENT OF HYPERKERATOSIS DISORDERS” (Azura Ophthalmics Ltd., priority 2016, published 2023).

Legend:
HaCaT cells = assay: MTT cell viability assay, dose response and time course; format: cell-based, human; conditions: for reduction of keratinocyte turnover or proliferation rate as determined by MTT cell viability tests: 72 hours
Description: Cell viability was measured by MTT assay.
Untreated cells were used as negative controls. […] A proper blank control was subtracted from the measurements.
The assay was carried out in triplicate. Untreated cells were used as negative controls.

HaCaT keratinocyte cells [1] = assay: Caspase-3 apoptosis assay; format: cell-based, human; conditions: HaCaT keratinocytes cell line, 72 hours
Description: Apoptosis was measured by the caspase-3 assay. Results are shown as percent of control. Staurosporine (100 nM) served as positive control. Mean±SEM; n=3. *p<0.05 for reduction from untreated control. HaCaT cells were seeded in a 96 well plates in concentration of 0.3×10^6 cells/mL in […] in complete growth medium (DMEM supplemented with 10% FBS and antibiotics). […] The assay was carried out in triplicates. Untreated cells were used as negative controls. At the end of each incubation period, cell viability and the extent of apoptosis were measured by MTT and Caspase-3 assays, respectively. A proper blank control was subtracted from the measurements.

HaCaT keratinocyte cells [2] = assay: BrdU ELISA assay of turnover rate (DNA replication); format: cell-based, human; conditions: 48 hr incubation
Description: Turnover rate was measured by BrdU. […] Staurosporine served as positive control. Mean±SEM; n=3. *p<0.05 for reduction from untreated control.
HaCaT cells were incubated without or with the indicated concentrations of selenium cysteine for 48 hr. Turnover rate was measured by BrdU. […] Mean±SEM; n=3. *p<0.05 for reduction from untreated control.
To further investigate the impact of selenium methionine on the cells, the DNA replication rate of the cells was monitored by the BrdU assay. […] The assay was carried out in triplicate.
The BrdU ELISA assay was performed according to kit manufacturer instructions. Briefly, during the final 16 hours of culture, BrdU was added to each well. The cells were fixed, permeabilized, and DNA denatured by the addition of buffers. BrdU monoclonal antibody was pipetted into the wells and allowed to bind for one hour. Colorimetric evaluation of the turnover rate was recorded by ELISA reader. The BrdU assay captures a 16 hr window, which gives a wide view on the proliferation rate of the cells.
To further investigate the impact of selenium cysteine on the cells, the DNA replication rate of the cells was monitored by a BrdU incorporation assay. The purpose was to determine the ability of selenium cysteine at selected concentrations and times to reduce HaCaT keratinocytes cells turnover rate. The assay was carried out in triplicates. The positive control was stautosporine (100 nM). The cells were seeded in 6- or 96-well plates in complete growth medium at 37° C. with 5% CO2 under humidified atmosphere. The cells were incubated with or without selenium cysteine for the selected time points and concentrations determined in Example 6. BrdU incorporation was performed at the selected concentration and a 48 hr time point was chosen for the BrdU assay.

HaCaT keratinocyte cells [3] = assay: Cell cycle analysis by flow cytometry (FACS); format: cell-based, human; conditions: HaCaT cells synchronized by serum deprivation, 24 hr incubation
Description: HaCaT keratinocyte cells were synchronized by serum deprivation for 24 hr. […] Cell cycle was measured by FACS analysis. […] Staurosporine (100 nM) served as positive control. Mean±SEM; n=3. *p<0.05 for reduction from untreated control.
BrdU and FACS analyses were performed in one selected concentration. Two time points (24 hr and 48 hr) were chosen for the flow cytometry and one for the BrdU assay. In order to induce culture synchronization, serum-free medium was used prior of BrdU/FACS analyses in the 24 hr treatment groups.
The effect of selenium methionine on cell cycle was analyzed by flow cytometry (FACS). At the end of the treatment, the cells were harvested by trypsinization and counted. Approximately 1.3×10^6 cells were transferred to a new tube, centrifuged for 5 min at 1500 rpm (2-8° C.), and suspended in 0.5 ml of ice cold PBS. Then, the cells were fixed by adding 2.5 ml of 70% ethanol (2-8° C.) in a dropwise manner. The cells were stored at 2-8° C. for 48 hr at this stage. After 30 min of incubation, the samples were washed 3×1 mL PBS and 0.5 mL of ribonuclease stock solution (0.2 mg/mL supplemented with 0.1% (v/v) Triton x-100 in PBS) were added to the cell pellet for 1 hr at rt. This step was performed to ensure only DNA, not RNA, was stained. 0.5 mL of propidium iodide (PI, 100 μg/ml) was added to the samples still suspended in the ribonuclease stock solution. […]

Human stratum corneum = assay: Thiol degradation assay ex vivo in human skin tissue; conditions: 2 hr
Description: Then, the mixtures were analyzed for free thiol moieties concentration.
The skin was cleaned, washed with PBS, and then the epidermis was peeled. The epidermis was incubated with 100 mL of 0.005% trypsin (in PBS) at 37° C. overnight. The stratum corneum was washed with HPLC grade water and transferred to a clean Eppendorf tube. The water was evaporated by SpeedVac and the stratum corneum was washed once again with ice cold hexane to exclude residuals lipids in the fraction. The solvent was removed by SpeedVac.
The stratum corneum pieces were weighed in order to determine their dry weight. 50 mg of dried stratum corneum was dissolved in 1M NaOH and mixed thoroughly for 1 hr. Stratum corneum was treated with or without the test items for 2 hr. L-acetylcysteine containing free thiol moieties served as positive control. To isolate the free thiol moieties from the mixture, the samples or blank (50 μl) were incubated with equal volume of TCA (trichloroacetic acid) for 5 min. Then, the tubes were centrifuge for 15 min at 10,000 rpm at room temperature. The pellet was evaluated. Ellman's reagent stock solution (3 mM) was prepared in methanol. […] The 96-well plates were incubated for 5 min at RT, mixed, and the optical absorbance was recorded at 412 nm. A standard calibration curve was read simultaneously without the TCA precipitation step.

With `O=C(O)c1ccccc1O` [SA, Salicylic acid] the “reduction of keratinocyte turnover or proliferation rate as determined by MTT cell viability tests” value (“reduction … by MTT cell viability tests” for short) (HaCaT cells) was “no dose dependent effect”, the “activation of caspase-3 apoptosis marker (apoptotic effect)” value (HaCaT keratinocyte cells [1]) was “significant increase” and the “effect on proliferation of the cells (DNA replication, BrdU)” value (HaCaT keratinocyte cells [2]) was “does not affect the proliferation”. The “effect on cell cycle (cell arrest properties)” value (HaCaT keratinocyte cells [3]) was “no cell arrest properties” and the “elevation in thiol degradation assay releasing free SH moieties” value (Human stratum corneum) was “caused elevation”.
`CCCCCCCCCCCCOS(=O)(=O)[O-].[Na+]` [SDS] was tested, and the “cell viability (MTT)” value (HaCaT cells; positive control 0.1%) was “significantly decreased cell viability”.
In the case of `CN[C@@H]1C[C@H]2O[C@@](C)([C@@H]1OC)n1c3ccccc3c3c4c(c5c6ccccc6n2c5c31)C(=O)NC4` [staurosporine], the “effect on proliferation of the cells (DNA replication, BrdU)” value (HaCaT keratinocyte cells [2]) was “dose-dependent reduction”.
With selenium cysteine the “reduction … by MTT cell viability tests” value (HaCaT cells) was “significant dose-dependent effect” and the “reduction of proliferation of keratocytes (BrdU, DNA replication)” value (HaCaT keratinocyte cells [2]) was “more than 90%”.
selenium methionine was tested, and the “reduction … by MTT cell viability tests” value (HaCaT cells) was “significant dose-dependent effect”, the “activation of caspase-3 apoptosis marker (apoptotic effect)” value (HaCaT keratinocyte cells [1]) was “significant increase” and the “reduction of proliferation of keratocytes (BrdU, DNA replication)” value (HaCaT keratinocyte cells [2]) was “up to 60%”. The “effect on cell cycle (cell arrest properties)” value (HaCaT keratinocyte cells [3]) was “elongation of the S phase in the cell cycle and lowered M phase” and the “elevation in thiol degradation assay releasing free SH moieties” value (Human stratum corneum) was “up to 35%”.
